What was measured:
in vitro = assay type: cell-based; details: MT-2 cells, neutral red uptake, 72 h
Excerpt: (§1) The following cell lines were used: H9/HTLV III B—chronically infected with HIV-1LAI cells, kindly provided by Professor R. Gallo, and MT-2 uninfected human lymphoblastoid cells, HTLV-I transformed. The cells were maintained in RPMI 1640 plus 10% FCS.
(§2) The following parameters were studied: cytotoxic concentration 50—CC50 (concentration […] death of 50% of MT-2 cells), maximal nontoxic concentration—MNC (the highest concentration causing no cytotoxicity), and inhibitory concentration 50–IC50 (concentration inhibiting by 50% the viral replication). CC50 and MNC were detected by neutral red uptake assay. IC50 was studied on MT-2 cells by microtiter infection assay using neutral red uptake. Briefly, the experimental procedure under conditions of acute infection was performed in 96-well microplates in the following sequence:
(§3) • 100 μL MT-2 cells (4–5 × 10 ^4 cells); • 50 μL HIV-1 (undiluted or in the appropriate dilution to obtain multiplicity of infection ≥ 1); contact (2 hours at 37°C/5% CO2); when CC50 and MNC were detected, growth medium instead of virus has been added; • 50 μL sample of substance tested starting from 4× MNC (because this volume is 1/4 of the whole volume in the well) and 2- or 10-fold dilutions in growth medium.
(§4) The cells were incubated for 72 hours and then 100 μL of them were removed to another 96-well plate previously treated for an hour with 50 μg/mL poly-L-lysine (PLL) in volume 100 μL. A solution of 100 μL per well of neutral red in growth medium (0.016%) was added and the cells were incubated for 2 hours at 37°C/5% CO2. Neutral red dye was extracted by acidified alcohol (50% ethanol in 1% acetic acid) and measured colorimetrically at 540 nm. Each plate contained 8 cell control wells (no virus, no substance) for all kinds of experiments. When IC50 was detected, a row of 8 viral controls (plus virus, no substance) and rows of 8 experimental wells (plus virus, different dilutions of the substance) were performed. The values of optical density at 540 nm (OD540) were averaged for each row and the mean values of experimental and control rows were compared. As far as the ligands and their complexes were DMSO soluble, the appropriate controls of DMSO and DMSO + HIV-1 in growth medium were always considered.

MT-2 cells = test: in vitro; assay type: cell-based; details: for MNC (maximal nontoxic concentration) / CC50 / MNC higher compared to La(1) and the ligand (1): MT-2 cells; for MNC (maximal nontoxic concentration) / CC50: neutral red uptake, 72 h; for MNC higher compared to La(1) and the ligand (1): ratio of MNC
Excerpt: as §1, §2, §3, §4

HIV-1 = details: at MNC, 72 h incubation, supernatants of HIV-1 infected MT-2 cells, averaged after at least 3 experiments
Method: Endogenous RT activity of supernatants of HIV-1 infected MT-2 cells treated/untreated with complexes and ligands was tested by HS-Lenti Kit-RT assay (Cavidi, Sweden). The kit contained recombinant RT (rRT) as a standard which made possible quantitation of the RT in the sample. The method is nonradioactive and colorimetrically detects RT activity product (DNA) at 405 nm (OD405) [3].

HIV-1LAI = test: Microtiter infection assay (neutral red uptake), acute infection of MT-2 cells; assay type: cell-based; details: for Inhibition (%): 2.5 μM, HIV-1LAI infected MT-2 cells; for anti-HIV potency (in words): MT-2/HIV-1, at or under MNC
Method: As a source of HIV-1, the supernatant of H9/HTLV III B cell line was used. The supernatants were collected and centrifuged to remove the cells, and virus stocks were prepared with known p24 antigen content, RT activity and infectivity. MT-2 cells were infected with HIV-1 (multiplicity of infection ≥ 1) in suspension (37°C/5% CO2) and then grown parallely with uninfected ones for 72 hours.
CC50 and MNC were detected by neutral red uptake assay. IC50 was studied on MT-2 cells by microtiter infection assay using neutral red uptake. Briefly, the experimental procedure under conditions of acute infection was performed in 96-well microplates in the following sequence:
as §3, §4

[1] = system: H9/HTLV III B cells chronically producing HIV-1LAI; test: Chronic infection: microtiter infection assay on MT-2 cells with supernatants of treated H9/HTLV III B cells; assay type: cell-based; details: undiluted supernatant on MT-2 cells
Method: (§5) The effect of the compounds was also studied under conditions of chronic infection using productively HIV-infected cells (H9/HTLV III B). The production of infectious virions was measured again using the cytopathic effect of supernatants on MT-2 cells as described above.
(§6) To address further the target of HIV inhibition especially by La(W), a study of this complex for effect on late stages of HIV-1 life cycle (protease, budding, assembly) was carried out. To do this, we treated H9/HTLV III B cells—chronically producing HIV-1—with La(W) at 3 concentrations, starting from MNC. Also, 10× dilution of Indinavir was used as a reference for antiprotease effect. Table 7 represents the results for the effect of La(W) in 3 concentrations on late stages of HIV replication.

[2] = system: H9/HTLV III B cells chronically producing HIV-1LAI; test: Chronic infection: RT activity in supernatants of treated H9/HTLV III B cells; assay type: cell-based
Method: as §5, §6

Row | Compound | CC50 at 72 h (in vitro) [µM] | MNC (maximal nontoxic concentration) (MT-2 cells) | HIV inhibition (%) Endogenous RT activity (HIV-1) | Inhibition (%) (HIV-1LAI; 72 h incubation) | anti-HIV potency (in words) (HIV-1LAI) | CC50 (MT-2 cells) [µM] | MNC higher compared to La(1) and the ligand (1) (MT-2 cells) | further results
1 | O=c1oc2ccccc2c(O)c1C(c1ccccc1)c1c(O)c2ccccc2oc1=O [(1), 3,3′-benzylidenebis[4-hydroxycoumarin]] | 25 | 0,25 μM | – | – | – | – | – | –
2 | CC(=O)CC(c1ccccc1)c1c(O)c2ccccc2oc1=O (centres unmarked) [(W), 4-hydroxy-3-(3-oxo-1-phenylbutyl)-2H-1-benzopyran-2-one, reference compound] | 250 | 25 µM | ∼ 1% | – | – | – | – | –
3 | O.O.O=c1oc2ccccc2c([O-])c1C(c1ccccc1)c1c([O-])c2ccccc2oc1=O.[Ce+3].[OH-] [Ce(1)] | – | 12,5 μM | ∼ 1% | 8,7% | limited anti-HIV potency | 25 | 10–50 times | –
4 | CC(C)(C)NC(=O)[C@@H]1CN(Cc2cccnc2)CCN1C[C@@H](O)C[C@@H](Cc1ccccc1)C(=O)N[C@H]1c2ccccc2C[C@H]1O [Indinavir] | – | – | – | – | – | – | – | Microtiter infection assay OD540 ([1]; 0.05 μM): 0.739 OD540; Microtiter infection assay OD540 ([1]; 0.5 μM): 0.633 OD540; Microtiter infection assay OD540 ([1]; 5 μM): 0.520 OD540; Microtiter infection assay OD540 ([1]; 50 μM): 0.375 OD540; RT activity of SNs OD405 ([2]; 0.05 μM): 1.454 OD405; RT activity of SNs OD405 ([2]; 0.5 μM): 1.400 OD405; RT activity of SNs OD405 ([2]; 5 μM): 1.154 OD405; RT activity of SNs OD405 ([2]; 50 μM): 0.903 OD405
5 | O.O=c1oc2ccccc2c([O-])c1C(c1ccccc1)c1c([O-])c2ccccc2oc1=O.[La+3].[OH-] [La(1)] | – | 0,25 μM | – | – | – | 25 | – | –
6 | O.O=c1oc2ccccc2c([O-])c1C(c1ccccc1)c1c([O-])c2ccccc2oc1=O.[Nd+3].[OH-] [Nd(1)] | – | 2.5 µM | ∼ 1% | 10,4% | limited anti-HIV potency | 125 | 10–50 times | HIV inhibition (%) Microtiter infection assay (HIV-1LAI; at MNC, 72 h incubation, MT-2 cells, averaged after at least 3 experiments): 10.4%; lower cytotoxicity compared to the other lanthanides and the ligand (1) (MT-2 cells; ratio of CC50, MT-2 cells): at least 5 times

Source: PMC1779548, “Antihuman Immunodeficiency Virus Type 1 (HIV-1) Activity of Rare Earth Metal Complexes of 4-Hydroxycoumarins in Cell Culture” (Bioinorganic Chemistry and Applications, 2006)
